The text below walks through data of patent US20040253665A1, “Novel peptide-producing enzyme, microbe producing the enzyme and method for dipeptide synthesis using them” (AJINOMOTO CO., INC., priority 2002, published 2004).

Residues, ends and D or L forms follow the SMILES beside them. *: point of attachment. Boc = CC(C)(C)OC(=O)*

The test system of this assay is peptide-producing enzyme (Mono S fraction) from Empedobacter brevis strain FERM BP-8113. Nature of the assay: Enzyme substrate specificity (1)-(10), (13), (14). The assay is classed as biochemical. The arrangement: key: +: those for which production was confirmed but which were unable to be quantified due to the absence of a standard; a trace amount. The following applies: carboxy component 100 mM, amine component 150 mM, 0.1 unit enzyme, 25° C., reaction time 2 hr. From the text: Ester specificity was examined in the case of using L-amino acid ester for the carboxy component. […] The amounts of L-Ala-L-Gln produced in this reaction are shown in Table 4 (HCl represents hydrochloride in Table 4). Peptide production was examined in the case of using L-alanine methyl ester for the carboxy component and using various L-amino acids for the amine component. […] (The “+” mark indicates those peptides for which production was confirmed but which were unable to be quantified due to the absence of a standard, while “tr” indicates a trace amount.) Peptide production was examined in the case of using various types of L-amino acid methyl esters for the carboxy component and using L-glutamine for the amine component. […] Peptide production was examined in the case of using various L-amino acid methyl esters for the carboxy component and various L-amino acids for the amine component. […] (The “tr” indicates a trace amount.) Furthermore, Tween-80 was added to the reaction system to a final concentration of 0.1% in the case of using L-Trp-OMe. (The “+” mark indicates those peptides for which production was confirmed but which were unable to be quantified due to the absence of a standard.) […] (The “tr” indicates a trace amount.) Peptide production was examined using various L-amino acid amides for the carboxy component, and various L-amino acids for the amine component. […] Peptide production was examined in the case of using various L-alanine methyl esters for the carboxy component and C-protected L-amino acids for the amine component. […] Peptide production was examined in the case of using various amino acid methyl esters for the carboxy component and methylamine for the amine component. […] Peptide production was examined in the case of using β-amino acid ester for the carboxy component or β-amino acid for the amine component. […] (The “tr” indicates a trace amount.) Oligopeptide production was examined in the case of using L-amino acid ester for the carboxy component and peptide for the amine component. […] Substrate specificity was additionally assessed using the same enzyme fraction as that used in Example 5. […] (A “+” mark indicates those for which production was confirmed but which were unable to be quantified due to the absence of a standard, while “tr” indicates a trace amount). Substrate specificity with respect to oligopeptide production was assessed using the same enzyme fraction as Example 26. […] (A “+” mark indicates those for which production was confirmed but which were unable to be quantified due to the absence of a standard, while “tr” indicates a trace amount). It should be noted that hydrochlorides were used for all of the carboxy components.

`CC(C)(C)OC(=O)NCCCC[C@H](N)C(=O)N[C@@H](CCC(N)=O)C(=O)O` [H-Lys(Boc)-Gln-OH] (H-Lys(Boc)-Gln-OH): the “Produced peptide (mM)” value is reported as “+”.
